Reference: patent US11712483B2, “Activatable membrane-interacting peptides and methods of use” (priority 2013, dated 2023)
Entries after “also recorded” stand apart in the source; their conditions may differ. Where no end group is shown, it is not given here. Cy3 = cyanine3 fluorescent dye; Cy5 = cyanine5 fluorescent dye

How the values were obtained:
[1] = Förster resonance energy transfer (FRET) to fluorescent liposomes; assay type: binding; conditions: 100 nm liposomes, entirely PS
Description: Förster resonance energy transfer (FRET) relies upon the ability of light to be exchanged from one fluorescent moiety to another, which becomes possible only when the moieties are in close proximity to one another, typically less than about 30 Angstroms. Liposomes having similar composition to that used in the intrinsic fluorescence assays were prepared with 1% DiO, a lipid-soluble fluorescent compound whose fluorescence emission characteristics match the excitation wavelength of the promolecule when conjugated to […]. DiO-containing liposomes (1 μM) were mixed with Cy5 containing promolecules or activated peptide portions (20 nM), and the spectral characteristics of the mixture were determined. Cy3 was excited with 545 nm light, and the emission of Cy5 was measured over 650 to 700 nm. The activated peptide portions, but not the promolecules, enabled fluorescence energy transfer, which confirmed the observations made using intrinsic fluorescence.

[2] = system: blood clots formed in vitro; assay: Blood clots formed on glass slides; parameters: species or system bovine; conditions: for accumulation on actively clotting platelets / localization to blood clots: clots on glass slides, fluorescence microscopy; for accumulation on red blood cells: without activation
Description: Whole bovine blood was mixed at a ratio of 5:1 with a 10 nM solution of promolecules bearing the fluorescent dye Cy5. The mixture was then added to 1 uL of activated coagulation factor Xa (10 nM) and calcium chloride (10 mM) to initiate clot formation on the surface of a conventional microscopy slide. The mixture was then stirred with the tip of a plastic pipette for four minutes until a clot was formed. The clot was then pulled gently across the slide with the goal of flattening out the clot for better imaging. A coverslip was then placed on top of the slide and held in place by dabbing the corners with adhesive. The slide was then imaged within a few hours using an epifluorescence microscope (Nikon Eclipse Ti-E) bearing the appropriate filters for detection of the Cy5 dye.

thrombin = thrombin (Homo sapiens, UniProt P00734); assay: Thrombin-mediated proteolysis by reverse phase HPLC; assay type: biochemical; conditions: digestion by thrombin, Michaelis-Menten
Description: Thrombin-mediated proteolysis of promolecules was performed by incubating the enzyme at concentrations ranging from 0.1 to 2 nM with a 20 to 100 μM solution of the promolecule at 37° C. for up to three or a full twenty-four hours to ensure completeness. The extent of proteolysis was assessed by reverse phase high-pressure liquid chromatography. Samples were run over a C18 column using an acetonitrile gradient of 20% to 80% over a period of 30 minutes. Complete hydrolysis was evident by the absence of the initial peak corresponding to the promolecule, and was further validated using mass spectrometry.

[3] = system: enteropeptidase or thrombin activity; assay: Fluorescence imaging in a subject, promolecule activated by either of two enzymes; assay type: in vivo; conditions: administered to a subject
Description: In order to activate this promolecule, either X^2a or X^2b must be cleaved, so that this promolecule is activated by either thrombin or enteropeptidase activity. The molecule is administered to a subject, and is cleaved in areas having enteropeptidase or thrombin activity, causing portion A to separate from portion Z and interact with membranes in the vicinity.

[4] = Intrinsic tryptophan fluorescence with liposomes or detergent micelles; assay type: binding
Description: Intrinsic fluorescence was used to characterize promolecules containing one or more tryptophan residues in portion A. As the spectral properties of tryptophan are dependent upon its local environment, this provides unequivocal definition of its partitioning into phospholipid membranes. In aqueous conditions, tryptophan typically emits light near 355 nm when excited with 285 nm light. In contrast, the emitted light is […] or lowered when the tryptophan of the peptide is present in an apolar environment, such as the interior of a phospholipid membrane, and produces a maximum emission wavelength typically in the range of 325 to 345 nm. Both the magnitude and wavelength of light emitted under this fluorescence assay are influenced by the properties of the peptide and the composition of the phospholipid membrane. […] A typical assay employed an 8 μM solution of promolecules and liposomes of defined size (100 nm in diameter, 0.5 mM) composed of phosphatidylserine or phosphatidylcholine or a combination thereof to test the influence of negatively charged or zwitterionic surfaces. […] Time-dependent measurement of the fluorescence emission spectra was used to characterize the activation of the promolecules by thrombin (2 nM) or by other proteases (10 nM or higher).

MDA-MB-231 cells = assay: Trypan blue dye exclusion, MDA-MB-231 cells; assay type: cell-based; conditions: 1 hour, 37° C.
Description: (§1) To examine the interaction of the promolecule and its activated form with cell membranes rather than artificial membranes, the promolecules were incubated with cells of the breast cancer cell line MDA-MB-231 (approximately 100,000 cells in a volume of […]) for 1 hour at 37° C. in Dulbecco's modified Eagle medium containing 1% fetal bovine serum, and cell viability was assessed using Trypan blue dye exclusion.

matriptase = target: T1, matriptase (Homo sapiens, UniProt Q9Y5Y6); assay: Selective activation in MDA-MB-231 cells, trypan blue, matriptase; assay type: cell-based; conditions: exogenous addition of different proteases
T1 sequence (Q9Y5Y6 615-855 limits assumed): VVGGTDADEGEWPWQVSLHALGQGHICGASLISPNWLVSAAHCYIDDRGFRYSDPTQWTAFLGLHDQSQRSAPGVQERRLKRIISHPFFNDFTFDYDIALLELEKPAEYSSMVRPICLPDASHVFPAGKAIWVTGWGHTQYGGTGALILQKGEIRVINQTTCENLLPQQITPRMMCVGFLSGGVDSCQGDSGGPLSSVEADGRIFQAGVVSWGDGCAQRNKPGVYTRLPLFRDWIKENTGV
Description: as §1
(§2) Cy5 fluorescent dye was conjugated to this promolecule via an N-terminal thiol (module X^1a) to create a promolecule having the structure X^1a-A-X^2—Z, and its interaction with HT29 cells was analyzed using fluorescence microscopy. In this experiment, cells were grown to confluence on glass bottom microwell dishes and the peptide (10 uM) incubated with the cells for between one to three hours and then washed for staining with fluorescently-labeled wheat germ agglutinin. After such staining the cells were covered in typical cell culture media and allowed to grow overnight for another round of imaging.

HT29 cells = assay: Fluorescence microscopy of HT29 cells; assay type: cell-based
Description: as §2

[5] = system: mouse pancreatic duct carcinoma cells; assay: DRAQ7 exclusion, mouse pancreatic duct adenocarcinoma cells; assay type: cell-based; conditions: prolonged incubation, high micromolar concentrations, FIGS. 10 and 11
Description: DRAQ7 is a far-red fluorescent DNA dye that stains the nuclei of dead and permeabilized cells. Unlike trypan blue, it can be combined with other commonly used fluorophores, such as Oregon Green 488 and Cy5. Healthy cells exclude the dye, and no increase in fluorescence is observed. […] When complexed with double stranded DNA, the dye has a maximum excitation wavelength of 643 nm and a maximum emission wavelength of 694 nm. Cells incubated with the promolecule or the activated peptide form of the promolecule in the presence or absence of thrombin (5 nM) were exposed to DRAQ7 (3 μM) for at least 10 minutes and then imaged using two different approaches. In the first approach, the cells were mouse pancreatic duct adenocarcinoma cells, the incubation buffer contained wheat germ agglutinin conjugated with Oregon Green 488, and the cells were visualized with a Nikon Eclipse Ti-E bearing the appropriate filters. In the second approach, mouse X3 fibroblast cells bearing a modified Histone 2A gene fused to green fluorescent protein (GFP) were imaged using an Acumen Ex3—a commercially available confocal microscopy instrument specifically designed for high throughput, content rich and highly multiplexed data applicable to a wide range of biological assays.

[6] = in vivo
Description: In order to extend the circulating half-life of the promolecule, it is covalently linked to a molecule of polyethylene glycol (PEG) having a moleculer weight of 1,000 Daltons. The PEG-modified promolecule is administered to a subject and the circulating half-life is measured.

(Cy3-K)ILGTILGLLKGLPRSFLLRNPNDKYEPFW (Cy3-KILGTILGLLKGLPRSFLLRNPNDKYEPFW; also: Cy3 conjugated to N-terminal Lys, attachment site not given here) [SEQ ID NO: 48, thrombin-cleavable promolecule with protonectin as portion A, Cy3 on N-terminal lysine]
FRET to DiO liposomes composed of phosphatidylserine (PS) [1]: do not associate closely enough with the PS liposomes to enable FRET
accumulation on actively clotting platelets / localization to blood clots [2]: intense accumulation of the active form of the promolecule; also recorded: localization of membrane-interacting peptide-containing cleavage products in blood clots
accumulation on red blood cells [2]: did not accumulate on red blood cells
Km (thrombin): 0.2 µM

(Cy5)CFFWLSKIFPRDDDDKDD (Cy5-CFFWLSKIFPRDDDDKDD) [SEQ ID NO: 53]
detection of Cy5 dye by fluorescence microscopy [3]: the Cy5 dye is detected in areas having enteropeptidase or thrombin activity

(Cy5)FVQWFSKFLGKLLKSRAEDEGLYDDD (Cy5-FVQWFSKFLGKLLKSRAEDEGLYDDD; not fully specified; printed as (Cy5)FVQWFSKFLGKLLKSRAEDEGLYDDD) [SEQ ID NO: 49, matriptase-cleavable promolecule; tested as A-X^2—Z and with Cy5 via N-terminal thiol]
maximum emission wavelength / spectral properties, intrinsic tryptophan fluorescence ([4]; in presence of PC or PS liposomes or detergent micelles compared to buffer alone (PBS)): undergo a limited change
interaction with phospholipid membranes, intrinsic fluorescence ([4]; promolecule A-X^2—Z before activation): moderate restricted interaction with phospholipid membranes
toxicity / cell death, trypan blue dye uptake (MDA-MB-231 cells): Limited toxicity; also recorded: low toxicity; also recorded: did not
activation by matriptase (diminished trypan blue dye exclusion) (matriptase): selectively activated by matriptase
fluorescent signal on cell surface (HT29 cells; Cy5-conjugated promolecule, after co-incubation): accumulated on the surface of the HT29 cells; also recorded: detectable on the surface of cells
internalization into cells (HT29 cells; after washing and further incubation (24 hours)): internalized into the cells; also recorded: localized in punctate spheres inside the cells

Cy5-CFVQWFSKFLGKLLPRSFLLQDPNDQYEPFW [SEQ ID NO: 52]
accumulation on actively clotting platelets / localization to blood clots [2]: intense accumulation of the activated peptide form of the promolecule; also recorded: localization of the membrane-interacting peptide-containing cleavage product to blood clots
accumulation on red blood cells [2]: did not accumulate on red blood cells

FVQWFSKFLGKLLPRSFLLQDPNDQYEPFW [SEQ ID NO: 47]
peptide-to-cell ratio at which cells did not exclude trypan blue or DRAQ7 (no longer viable) [5]: greater than 10^9 to one

PEG-modified promolecule: SEQ ID NO: 52 covalently linked to polyethylene glycol of 1,000 Daltons (CFVQWFSKFLGKLLPRSFLLQDPNDQYEPFW; not fully specified (residue 1, N-terminus); printed as Cy5-CFVQWFSKFLGKLLPRSFLLQDPNDQYEPFW; also: PEG 1000 Da attached, site not given here)
circulating half-life versus non-PEG-modified form [6]: longer circulating half-life than the non-PEG-modified form
